The numbers were not newly measured in EP3856749B1, “WATER-SOLUBLE, NON-AGGREGATED SILICON PHTALGCYANINE COMPOUND HAVING IN VITRO ANTICANCER EFFECT AGAINST CANCER TYPES OF LUNG, LIVER, BREST AND MELANOMA” (Karadeniz Teknik Universitesi, priority 2018, dated 2020), which cites them from elsewhere.

The test system of the data set is cervical cancer cell line (HeLa). Conditions: cited from earlier work.

`c1ccc(C(O[Si]2(OC(c3ccccc3)(c3ccccc3)c3ccncc3)n3c4c5ccccc5c3N=C3N=C(N=c5c6ccccc6c(n52)=NC2=NC(=N4)c4ccccc42)c2ccccc23)(c2ccccc2)c2ccncc2)cc1` [compound 3, axially di-(alpha,alpha-diphenyl-4-pyridylmethoxy) silicon(IV) phthalocyanine]: the “cell survival (photocytotoxicity)” value is 17%.
